From ChEMBL document CHEMBL4732109, “Structural modifications in the distal, regulatory region of histamine H receptor antagonists leading to the identification of a potent anti-obesity agent” (Eur J Med Chem, 2021)
pKi: −log10 of the molar value. Activity calls are given as the source filed them. No cut-off for these calls is given here.

Experiments:
[1] = biological target: Cytochrome P450 3A4 (Homo sapiens, UniProt P08684); experiment: Inhibition of recombinant CYP3A4 (unknown origin) at 10 uM measured after 30 mins by luciferase reporter gene assay; type: ADME; details: recombinant enzyme, 0.5 h
Chain of Cytochrome P450 3A4 (P08684 whole entry): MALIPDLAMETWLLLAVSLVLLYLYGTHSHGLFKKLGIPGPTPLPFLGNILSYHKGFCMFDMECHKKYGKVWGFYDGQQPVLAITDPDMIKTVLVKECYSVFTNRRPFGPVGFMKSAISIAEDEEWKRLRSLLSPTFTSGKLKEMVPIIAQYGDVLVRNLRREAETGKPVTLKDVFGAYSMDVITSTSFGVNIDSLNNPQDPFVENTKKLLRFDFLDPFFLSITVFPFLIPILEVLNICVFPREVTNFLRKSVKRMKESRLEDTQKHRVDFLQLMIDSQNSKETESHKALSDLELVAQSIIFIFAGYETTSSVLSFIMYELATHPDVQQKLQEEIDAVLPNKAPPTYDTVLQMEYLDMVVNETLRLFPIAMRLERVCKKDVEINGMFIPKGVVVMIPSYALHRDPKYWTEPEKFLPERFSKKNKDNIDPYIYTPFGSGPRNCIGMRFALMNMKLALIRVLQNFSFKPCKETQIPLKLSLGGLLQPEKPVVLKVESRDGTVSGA

[2] = biological target: Histamine H1 receptor (Homo sapiens, UniProt P35367); experiment: Displacement of [3H]mepyramine from human H1R expressed in Sf9 cell membranes co-expressing RGS4 measured after 60 mins by scintillation counting analysis; set-up: species or system Membrane
Chain of Histamine H1 receptor (P35367 whole entry): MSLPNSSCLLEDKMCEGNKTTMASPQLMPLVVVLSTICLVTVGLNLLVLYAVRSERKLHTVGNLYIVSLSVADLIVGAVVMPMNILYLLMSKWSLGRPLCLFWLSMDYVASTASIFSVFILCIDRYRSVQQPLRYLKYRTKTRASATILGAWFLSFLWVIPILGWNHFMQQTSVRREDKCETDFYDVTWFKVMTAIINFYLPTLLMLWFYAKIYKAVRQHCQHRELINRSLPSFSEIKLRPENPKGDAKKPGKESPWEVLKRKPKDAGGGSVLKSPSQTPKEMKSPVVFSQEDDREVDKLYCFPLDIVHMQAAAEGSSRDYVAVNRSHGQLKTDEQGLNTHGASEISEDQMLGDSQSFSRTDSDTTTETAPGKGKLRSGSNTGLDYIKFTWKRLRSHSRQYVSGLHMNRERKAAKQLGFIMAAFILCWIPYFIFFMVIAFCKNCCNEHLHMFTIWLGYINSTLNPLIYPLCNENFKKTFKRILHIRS

[3] = biological target: T1, Histamine H3 receptor (Homo sapiens, UniProt Q9Y5N1); experiment: Displacement of [3H]UR-PI294 from human SP-FLAG-tagged H3R expressed in HEK293T cells measured after 60 to 120 mins by liquid scintillation counting analysis; type: cell-based
T1 sequence (Q9Y5N1 whole entry): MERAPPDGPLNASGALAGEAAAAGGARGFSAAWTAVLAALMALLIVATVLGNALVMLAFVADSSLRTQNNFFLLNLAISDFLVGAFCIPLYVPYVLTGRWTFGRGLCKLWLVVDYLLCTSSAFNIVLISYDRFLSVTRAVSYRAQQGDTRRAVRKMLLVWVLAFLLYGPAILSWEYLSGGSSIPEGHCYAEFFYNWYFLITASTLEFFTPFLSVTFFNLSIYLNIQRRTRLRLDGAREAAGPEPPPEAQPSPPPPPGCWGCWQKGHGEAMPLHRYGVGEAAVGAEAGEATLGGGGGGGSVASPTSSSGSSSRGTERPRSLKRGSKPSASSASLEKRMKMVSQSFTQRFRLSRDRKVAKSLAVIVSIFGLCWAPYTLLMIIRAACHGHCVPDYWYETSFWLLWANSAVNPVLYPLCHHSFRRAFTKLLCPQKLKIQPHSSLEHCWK

[4] = biological target: Histamine H4 receptor (Homo sapiens, UniProt Q9H3N8); experiment: Binding affinity to human H4R
[5] = tested on: Rattus norvegicus; experiment: Anorectic activity in Wistar rat model of diet induced obesity assessed as reduction in amount of peritoneal fat at 1 mg/kg/day, ip administered for 28 days; type: functional, organism-based; details: time 28.0 day
[6] = tested on: Rattus norvegicus; experiment: Anorectic activity in Wistar rat model of diet induced obesity assessed as increase in HDL level at 1 mg/kg/day, ip administered for 28 days measured on day 29 by spectrophotometric method; type: functional, organism-based; details: time 28.0 day
[7] = Effect on spontaneous locomotor activity in Wistar rat model of diet induced obesity at 1 mg/kg/day, ip administered for 27 days; type: ADME, organism-based; details: in vivo, 648 h, time 27 day
[8] = tested on: Rattus norvegicus; experiment: Anorectic activity in Wistar rat model of diet induced obesity assessed as reduction in total cholesterol level at 1 mg/kg/day, ip administered for 28 days measured on day 29 by spectrophotometric method; type: functional, organism-based; details: time 28.0 day
[9] = biological target: T1, Histamine H3 receptor; experiment: Binding affinity to human H3R
[10] = tested on: Rattus norvegicus; experiment: Anorectic activity in Wistar rat model of diet induced obesity assessed as reduction in amount of peritoneal fat at 10 mg/kg/day, ip administered for 28 days; type: functional, organism-based; details: time 28.0 day
[11] = Effect on spontaneous locomotor activity in Wistar rat model of diet induced obesity at 1 to 10 mg/kg/day, ip administered for 27 days; type: ADME, organism-based; details: in vivo, 648 h, dose 1-10 mg/kg/day, time 27 day
[12] = tested on: Rattus norvegicus; experiment: Anorectic activity in Wistar rat model of diet induced obesity assessed as reduction in calorie intake at 10 mg/kg/day, ip administered for 28 days; type: functional, organism-based; details: time 28.0 day
[13] = tested on: Rattus norvegicus; experiment: Anorectic activity in Wistar rat model of diet induced obesity assessed as reduction in plasma glucose level at 10 mg/kg/day, ip administered for 28 days measured on day 29 by spectrophotometric method; type: functional, organism-based; details: time 29.0 day
[14] = tested on: Rattus norvegicus; experiment: Anorectic activity in Wistar rat model of diet induced obesity assessed as reduction in plasma glucose level at 1 mg/kg/day, ip administered for 28 days measured on day 29 by spectrophotometric method; type: functional, organism-based; details: time 28.0 day
[15] = tested on: Rattus norvegicus; experiment: Anorectic activity in Wistar rat model of diet induced obesity assessed as reduction in triglyceride level at 1 to 10 mg/kg/day, ip administered for 28 days measured on day 29 by spectrophotometric method; type: functional, organism-based; details: dose 1-10 mg/kg/day, time 28.0 day
[16] = tested on: Rattus norvegicus; experiment: Anorectic activity in Wistar rat model of diet induced obesity assessed as increase in HDL level at 10 mg/kg/day, ip administered for 28 days measured on day 29 by spectrophotometric method; type: functional, organism-based; details: time 29.0 day
[17] = tested on: Rattus norvegicus; experiment: Anorectic activity in Wistar rat model of diet induced obesity assessed as reduction in calorie intake at 1 mg/kg/day, ip administered for 28 days; type: functional, organism-based; details: time 28.0 day
[18] = tested on: Rattus norvegicus; experiment: Anorectic activity in Wistar rat model of diet induced obesity assessed as reduction in body weight at 1 mg/kg/day, ip administered for 28 days; type: functional, organism-based; details: time 28.0 day
[19] = tested on: Rattus norvegicus; experiment: Anorectic activity in Wistar rat model of diet induced obesity assessed as reduction in body weight at 10 mg/kg/day, ip administered for 28 days; type: functional, organism-based; details: time 28.0 day
[20] = tested on: Rattus norvegicus; experiment: Anorectic activity in Wistar rat model of diet induced obesity assessed as reduction in total cholesterol level at 10 mg/kg/day, ip administered for 28 days measured on day 29 by spectrophotometric method; type: functional, organism-based; details: time 29.0 day

| inhibition (INH) [1] | pKi [2] | pKi [3] | Structure (SMILES) | other results |
| --- | --- | --- | --- | --- |
| Active | 5.43 | 7.22 | Fc1ccc(-c2ccc(OCCCN3CCN(c4ccncc4)CC3)cc2)cc1 |  |
| Active | 5.39 | 6.85 | Clc1ccc(-c2ccc(OCCCN3CCN(c4ccncc4)CC3)cc2)cc1 |  |
| Active | 5.37 | 7.75 | c1ccc(Cc2ccc(OCCCN3CCN(c4ccncc4)CC3)cc2)cc1 |  |
|  |  |  | Clc1ccc(CCCOCCCN2CCCCC2)cc1 [PITOLISANT] | pKi [4]: < 4.00 |
| Active |  |  | O=C(c1ccc(OCCCc2cnc[nH]2)cc1)C1CC1 [CIPROXIFAN] |  |
|  |  |  | Cc1c(C(=O)NN2CCCCC2)nn(-c2ccc(Cl)cc2Cl)c1-c1ccc(Cl)cc1 [RIMONABANT] | Activity [5]: Active; Activity [6]: Active; Activity [7]: Non-Toxic; Activity [8]: Active |
| Active | 5.37 | 8.07 | c1ccc(Nc2ccc(OCCCN3CCN(c4ccncc4)CC3)cc2)cc1 |  |
| Active | 5.70 | 6.96 | Clc1cccc(-c2ccc(OCCCN3CCN(c4ccncc4)CC3)cc2)c1 |  |
|  |  |  | CN(C)[C@@H]1CCN(CCCOc2ccc(-c3ccc(C#N)cc3)cc2F)C1 | pKi [9]: 8.40 |
| Active | 5.34 | 7.69 | c1ccc(Oc2ccc(OCCCN3CCN(c4ccncc4)CC3)cc2)cc1 |  |
| Active | 5.13 | 7.17 | c1ccc2cc(OCCCN3CCN(c4ccncc4)CC3)ccc2c1 |  |
|  |  |  | CN(C)[C@@H]1CCN(CCCOc2ccc(-c3ccc(C#N)cc3)cc2)C1 | pKi [9]: 8.70 |

| Structure (SMILES) | inhibition (INH) [1] | pKi [2] | pKi [3] | other results |
| --- | --- | --- | --- | --- |
| O=C(c1ccc(OCCCN2CCN(c3ccncc3)CC2)cc1)C1CC1 | Active | < 5.00 | 8.50 |  |
| N#Cc1ccc(-c2ccc(OCCCN3CCN(c4ccncc4)CC3)cc2)cc1 | Active | 5.54 | 8.10 | Activity [10]: Active; Activity [5]: Active; Activity [11]: Non-Toxic; Activity [12]: Active; Activity [13]: Active; Activity [14]: inactive; Activity [6]: Active; Activity [15]: Active; Activity [16]: Active; Activity [17]: Active; Activity [18]: Active; Activity [19]: Active; Activity [20]: Active |
| O=C(c1ccc(OCCCN2CCC(c3ccncc3)CC2)cc1)C1CC1 | Active | < 5.00 | 8.11 |  |
| O=C(c1ccc(F)cc1)c1ccc(OCCCN2CCN(c3ccncc3)CC2)cc1 | Active | < 5.00 | 8.23 |  |
| O=C(c1ccc(Cl)cc1)c1ccc(OCCCN2CCN(c3ccncc3)CC2)cc1 | Active | 5.16 | 7.64 |  |
